Data on one molecule can be found in patent publication US20090298864A1, “Methods for Treating Mild Cognitive Impairment” (The Trustees of Columbia University in the City of New York, priority 2005, published 2009).

“Also recorded” adds a separate entry of the source.

Assay [1] has as its system APP mice. The assay can be described thus: Contextual fear learning (freezing) in APP mouse model of mild cognitive impairment. Type of assay: in vivo. To be noted: single transgenic APP mice, 3-5 months old; rolipram 0.3 mg/kg vs vehicle; freezing measured 24 hours after training; FIG. 1. The procedure: (§1) The effect of rolipram on contextual fear learning in APP mice was determined according to the methods set forth in Gong et al., J Clin Invest. 114(11):1624-34 (2004), which are described briefly as follows:
(§2) Three to five month old single transgenic APP and WT mice were separated into four groups: APP mice treated with vehicle (“APP control group”), APP mice treated with rolipram at 0.3 mg/kg (“APP rolipram group”), WT mice treated with vehicle (“control vehicle group”), and WT mice treated with rolipram at 0.3 mg/kg (“control rolipram group”). 30 minutes after treatment with either vehicle or rolipram, the mice were placed in a conditioning chamber and subjected to a series of electrical shocks to the feet. Animal behavior was evaluated for three types of response to the shocks (flinching, jumping and screaming) and thresholds for various types of responses were determined for each animal
(§3) Mice were placed in the conditioning chamber for about 2 minutes, then an auditory tone was given for about 30 seconds. During the last two seconds of the tone, the mice were given a foot shock. The mice were left in the conditioning chamber for about 30 seconds, then were returned to their home cages. […]
(§4) To evaluate contextual fear learning, freezing was measured for 5 consecutive minutes in the conditioning chamber 24 hours after training.

In assay [2] the test system is WT mice. Nature of the assay: Contextual fear learning (freezing) in WT control mice. Type of assay: in vivo, mouse. To be noted: rolipram 0.3 mg/kg vs vehicle, freezing measured 24 hours after training, FIG. 1. As to the method:
as §1, §2, §3, §4

Assay [3] relates to mouse model of Alzheimer's disease. To be noted: brief treatment of a mouse model of Alzheimer's disease; cited from earlier work.

As for `COc1ccc(C2CNC(=O)C2)cc1OC1CCCC1` (stereo not drawn) [rolipram], in assay [1], the “freezing in the contextual fear conditioning test (contextual fear learning)” value is reported as “much higher incidence of freezing; also recorded: improved contextual fear learning”. Further, the “freezing responses in the contextual fear conditioning test” value in assay [2] is “no significant difference”. For the same molecule, in assay [3], the “memory (long-term potential and contextual learning)” value was “improves memory in both long-term potential and contextual learning”.
